According to patent US9409975B2, “Antibody binding microbial heparin binding motif to retard or prevent microbial biofilm formation on implanted medical devices” (priority 2012, dated 2016):

System: C. albicans binding to heparin
Experiment: Inhibition of binding of CFSE-labeled C. albicans to plate-bound heparin (antibody and heparin inhibition studies)
Type: cell-based, Candida albicans
Experimental: A single colony of C. albicans was suspended in CSM to an OD600 of 0.1, diluted 1:200 into 25 ml CSM and grown at 30° C. overnight to mid-log phase (OD600 0.6-0.7). Cells were washed twice in sterile PBS and suspended in PBS at 2×10^7 CFU/ml. Carboxyfluorescein succinimidyl ester (Life Technologies) was dissolved in DMSO, diluted in PBS to 50 μM, and 0.5 ml CFSE mixed with 0.5 ml C. albicans suspension. The mixture was incubated for 20 min at room temperature on a rotator, washed once with FACS buffer, once with PBS, then suspended in 1 ml FACS buffer. Intensity of labeling was determined as the mean fluorescence intensity using a BD Accuri C6 cytometer (San Jose, Calif.) with excitation at 488 nm and a 533/30 emission filter. […] The following afternoon, C. albicans wild type strain and mutants were labeled with CFSE as follows: after growth of C. albicans to mid-log phase in CSM medium, organisms were washed two times in PBS and suspended in PBS at a concentration of 2×10^7/ml. 0.5 ml cells was mixed with 0.5 ml CFSE, covered in foil, and rotated on a mixer for 20 minutes at room temperature. […] At the end of the incubation period, wells were washed three times with PBS, and fluorescence in each well was measured (Beckman Coulter Multimode detector DTX880). […]

heparin
binding of C. albicans to solid-phase heparin after preincubation with heparin, in words (2.5 units (12.5 μg) solid-phase heparin): significantly decreased
decrease in binding of C. albicans to heparin after pre-incubation with soluble heparin (CFSE-labeled C. albicans pre-incubated with 100 units/ml heparin, p=0.022, data not shown): 27%
